Laboratory results from the NIST ThermoML archive (doi:10.1016/j.fluid.2011.04.024).
± gives the expanded uncertainty stated by the source.

Conditions: Liquid, Closed cell (Static) method

c1ccc2sccc2c1 [benzo[b]thiophene]
Conditions | vapor or sublimation pressure [kPa]
434.26 K | 21.3 ± 0.4
446.75 K | 30.3 ± 0.4
457.64 K | 41.1 ± 0.4
465.61 K | 50.8 ± 0.4
472.44 K | 60.5 ± 0.4
479.15 K | 71.5 ± 0.4
484.01 K | 80.5 ± 0.4
489.09 K | 90.9 ± 0.4
493.8 K | 101.5 ± 0.4

CCCCCCCCCCCC [dodecane]
Conditions | vapor or sublimation pressure [kPa]
432.23 K | 20.9 ± 0.4
444.86 K | 31 ± 0.4
455.87 K | 42.7 ± 0.4
462.05 K | 50.8 ± 0.4
469.67 K | 62.3 ± 0.4
474.19 K | 70.2 ± 0.4
479.82 K | 81 ± 0.4
484.34 K | 90.8 ± 0.4
488.5 K | 100.6 ± 0.4

CCCCCCCCO [octan-1-ol]
Conditions | vapor or sublimation pressure [kPa]
417.83 K | 20.5 ± 0.4
428.6 K | 30.4 ± 0.4
437.35 K | 41.5 ± 0.4
443.9 K | 50.5 ± 0.4
449.55 K | 60.7 ± 0.4
454.52 K | 71 ± 0.4
459.23 K | 81 ± 0.4
463.21 K | 91.1 ± 0.5
466.61 K | 100.3 ± 0.5

C=CCCCCCCCCCC [1-dodecene]
Conditions | vapor or sublimation pressure [kPa]
430.38 K | 21.7 ± 0.4
443.18 K | 33.6 ± 0.4
453.99 K | 44 ± 0.4
459.86 K | 52.6 ± 0.4
464.81 K | 61.6 ± 0.4
470.91 K | 70.7 ± 0.4
476.45 K | 80.8 ± 0.4
480.78 K | 90.2 ± 0.5
484.11 K | 100.7 ± 0.5
